In paper PMC10477861, “Efficient Mining of Anticancer Peptides from Gut Metagenome” (Advanced Science, 2023):

Legend:
Details in all cases: 25 µM pACP, 24 h, maintenance medium 1% FBS, ratio of viability to vehicle (PBS), at least three technical repetitions
MDA-MB-453 = assay: MTT primary screening of anticancer activity, MDA-MB-453; assay type: cell-based
Method in brief: (§1)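 MTT read-out of cell survival after a 24 h peptide exposure at 25 µM final c[…]ntration. Medium was switched to 1% FBS maintenance medium at treatment, with cultures at 60% confluence.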

CT26 = assay: MTT primary screening of anticancer activity, CT26; assay type: cell-based, Murine
Method in brief: as §1

MCF7 = assay: MTT primary screening of anticancer activity, MCF7; assay type: cell-based
Method in brief: as §1

SK-BR-3 = assay: MTT primary screening of anticancer activity, SK-BR-3; assay type: cell-based
Method in brief: as §1

T47D = assay: MTT primary screening of anticancer activity, T47D; assay type: cell-based
Method in brief: as §1

LCC = assay: MTT primary screening of anticancer activity, LCC; assay type: cell-based
Method in brief: as §1

MDA-MB-436 = assay: MTT primary screening of anticancer activity, MDA-MB-436; assay type: cell-based
Method in brief: as §1

MDA-MB-468 = assay: MTT primary screening of anticancer activity, MDA-MB-468; assay type: cell-based
Method in brief: as §1

Caco2 = assay: MTT primary screening of anticancer activity, Caco2; assay type: cell-based, Human
Method in brief: as §1

HCT116 = assay: MTT primary screening of anticancer activity, HCT116; assay type: cell-based, Human
Method in brief: as §1

EFM192A = assay: MTT primary screening of anticancer activity, EFM192A; assay type: cell-based
Method in brief: as §1

B16 = assay: MTT primary screening of anticancer activity, B16; assay type: cell-based, Mouse
Method in brief: as §1

BT474 = assay: MTT primary screening of anticancer activity, BT474; assay type: cell-based
Method in brief: as §1

Hela = assay: MTT primary screening of anticancer activity, Hela; assay type: cell-based, Human
Method in brief: as §1

HT29 = assay: MTT primary screening of anticancer activity, HT29; assay type: cell-based, Human
Method in brief: as §1

MDA-MB-231 = assay: MTT primary screening of anticancer activity, MDA-MB-231; assay type: cell-based
Method in brief: as §1

Sequence: LARPDAAPKKQLRRPLRFRQPEWRRISKIHHIPRRFRRA [pACP1156]
- Survival rate of cancer cells in primary screening (MDA-MB-453): 1.00
- Survival rate of cancer cells in primary screening (CT26): 1.00
- Survival rate of cancer cells in primary screening (MCF7): 1.00
- Survival rate of cancer cells in primary screening (SK-BR-3): 1.00
- Survival rate of cancer cells in primary screening (T47D): 0.74
- Survival rate of cancer cells in primary screening (LCC): 1.00
- Survival rate of cancer cells in primary screening (MDA-MB-436): 0.74
- Survival rate of cancer cells in primary screening (MDA-MB-468): 1.00
- Survival rate of cancer cells in primary screening (Caco2): 1.00
- Survival rate of cancer cells in primary screening (HCT116): 1.00
- Survival rate of cancer cells in primary screening (EFM192A): 1.00
- Survival rate of cancer cells in primary screening (B16): 0.78
- Survival rate of cancer cells in primary screening (BT474): 1.00
- Survival rate of cancer cells in primary screening (Hela): 1.00
- Survival rate of cancer cells in primary screening (HT29): 1.00
- Survival rate of cancer cells in primary screening (MDA-MB-231): 1.00

Sequence: IYRKGTCADCAQGGVCTGHCSNKKTCAALKGVDKIAEDLGRGIK [pACP822]
- Survival rate of cancer cells in primary screening (MDA-MB-453): 1.00
- Survival rate of cancer cells in primary screening (CT26): 1.00
- Survival rate of cancer cells in primary screening (MCF7): 0.78
- Survival rate of cancer cells in primary screening (SK-BR-3): 1.00
- Survival rate of cancer cells in primary screening (T47D): 0.63
- Survival rate of cancer cells in primary screening (LCC): 1.00
- Survival rate of cancer cells in primary screening (MDA-MB-436): 1.00
- Survival rate of cancer cells in primary screening (MDA-MB-468): 1.00
- Survival rate of cancer cells in primary screening (Caco2): 1.00
- Survival rate of cancer cells in primary screening (HCT116): 1.00
- Survival rate of cancer cells in primary screening (EFM192A): 1.00
- Survival rate of cancer cells in primary screening (B16): 0.69
- Survival rate of cancer cells in primary screening (BT474): 1.00
- Survival rate of cancer cells in primary screening (Hela): 1.00
- Survival rate of cancer cells in primary screening (HT29): 1.00
- Survival rate of cancer cells in primary screening (MDA-MB-231): 1.00

Sequence: RLIVRMKTLYEKAAQMEIKIVENRFTRHEKKNKINRIKRKREK [pACP1722]
- Survival rate of cancer cells in primary screening (MDA-MB-453): 0.11
- Survival rate of cancer cells in primary screening (CT26): 0.35
- Survival rate of cancer cells in primary screening (MCF7): 0.31
- Survival rate of cancer cells in primary screening (SK-BR-3): 0.63
- Survival rate of cancer cells in primary screening (T47D): 0.29
- Survival rate of cancer cells in primary screening (LCC): 1.00
- Survival rate of cancer cells in primary screening (MDA-MB-436): 0.27
- Survival rate of cancer cells in primary screening (MDA-MB-468): 1.00
- Survival rate of cancer cells in primary screening (Caco2): 0.70
- Survival rate of cancer cells in primary screening (HCT116): 1.00
- Survival rate of cancer cells in primary screening (EFM192A): 1.00
- Survival rate of cancer cells in primary screening (B16): 0.56
- Survival rate of cancer cells in primary screening (BT474): 0.14
- Survival rate of cancer cells in primary screening (Hela): 0.13
- Survival rate of cancer cells in primary screening (HT29): 0.63
- Survival rate of cancer cells in primary screening (MDA-MB-231): 1.00

Sequence: RPITNVGGFLEVNGKGVKPLHGNKFKCTVSGSFLASGWFTLELERVL [pACP1757]
- Survival rate of cancer cells in primary screening (MDA-MB-453): 1.00
- Survival rate of cancer cells in primary screening (CT26): 1.00
- Survival rate of cancer cells in primary screening (MCF7): 1.00
- Survival rate of cancer cells in primary screening (SK-BR-3): 1.00
- Survival rate of cancer cells in primary screening (T47D): 0.76
- Survival rate of cancer cells in primary screening (LCC): 1.00
- Survival rate of cancer cells in primary screening (MDA-MB-436): 1.00
- Survival rate of cancer cells in primary screening (MDA-MB-468): 1.00
- Survival rate of cancer cells in primary screening (Caco2): 1.00
- Survival rate of cancer cells in primary screening (HCT116): 1.00
- Survival rate of cancer cells in primary screening (EFM192A): 1.00
- Survival rate of cancer cells in primary screening (B16): 0.79
- Survival rate of cancer cells in primary screening (BT474): 1.00
- Survival rate of cancer cells in primary screening (Hela): 1.00
- Survival rate of cancer cells in primary screening (HT29): 1.00
- Survival rate of cancer cells in primary screening (MDA-MB-231): 1.00

Sequence: GWKKSQCCRNGFYRERGQQQAKNFMSQESFPVRENGE [pACP602]
- Survival rate of cancer cells in primary screening (MDA-MB-453): 1.00
- Survival rate of cancer cells in primary screening (CT26): 1.00
- Survival rate of cancer cells in primary screening (MCF7): 0.77
- Survival rate of cancer cells in primary screening (SK-BR-3): 1.00
- Survival rate of cancer cells in primary screening (T47D): 0.70
- Survival rate of cancer cells in primary screening (LCC): 1.00
- Survival rate of cancer cells in primary screening (MDA-MB-436): 1.00
- Survival rate of cancer cells in primary screening (MDA-MB-468): 1.00
- Survival rate of cancer cells in primary screening (Caco2): 1.00
- Survival rate of cancer cells in primary screening (HCT116): 1.00
- Survival rate of cancer cells in primary screening (EFM192A): 1.00
- Survival rate of cancer cells in primary screening (B16): 0.80
- Survival rate of cancer cells in primary screening (BT474): 1.00
- Survival rate of cancer cells in primary screening (Hela): 1.00
- Survival rate of cancer cells in primary screening (HT29): 1.00
- Survival rate of cancer cells in primary screening (MDA-MB-231): 1.00

Sequence: VAHGLDLLDGVVAEGVAAKGDDNTIGLAKRLRHCWNPFCKRPTTH [pACP2160]
- Survival rate of cancer cells in primary screening (MDA-MB-453): 1.00
- Survival rate of cancer cells in primary screening (CT26): 1.00
- Survival rate of cancer cells in primary screening (MCF7): 1.00
- Survival rate of cancer cells in primary screening (SK-BR-3): 1.00
- Survival rate of cancer cells in primary screening (T47D): 0.79
- Survival rate of cancer cells in primary screening (LCC): 1.00
- Survival rate of cancer cells in primary screening (MDA-MB-436): 1.00
- Survival rate of cancer cells in primary screening (MDA-MB-468): 0.70
- Survival rate of cancer cells in primary screening (Caco2): 1.00
- Survival rate of cancer cells in primary screening (HCT116): 1.00
- Survival rate of cancer cells in primary screening (EFM192A): 1.00
- Survival rate of cancer cells in primary screening (B16): 0.80
- Survival rate of cancer cells in primary screening (BT474): 1.00
- Survival rate of cancer cells in primary screening (Hela): 1.00
- Survival rate of cancer cells in primary screening (HT29): 1.00
- Survival rate of cancer cells in primary screening (MDA-MB-231): 1.00

Sequence: YSYGYVISSCKKAGGGYAIRYVALHYVQGTKEGGGRQ [pACP2344]
- Survival rate of cancer cells in primary screening (MDA-MB-453): 1.00
- Survival rate of cancer cells in primary screening (CT26): 1.00
- Survival rate of cancer cells in primary screening (MCF7): 1.00
- Survival rate of cancer cells in primary screening (SK-BR-3): 1.00
- Survival rate of cancer cells in primary screening (T47D): 1.00
- Survival rate of cancer cells in primary screening (LCC): 1.00
- Survival rate of cancer cells in primary screening (MDA-MB-436): 1.00
- Survival rate of cancer cells in primary screening (MDA-MB-468): 1.00
- Survival rate of cancer cells in primary screening (Caco2): 1.00
- Survival rate of cancer cells in primary screening (HCT116): 1.00
- Survival rate of cancer cells in primary screening (EFM192A): 1.00
- Survival rate of cancer cells in primary screening (B16): 0.76
- Survival rate of cancer cells in primary screening (BT474): 0.68
- Survival rate of cancer cells in primary screening (Hela): 1.00
- Survival rate of cancer cells in primary screening (HT29): 1.00
- Survival rate of cancer cells in primary screening (MDA-MB-231): 1.00
